Data: publication PMC9425435, “Antiviral Profiling of C-18- or C-19-Functionalized Semisynthetic Abietane Diterpenoids” (Journal of Natural Products, 2022)

Legend:
[1] = system: DENV-2 (Dengue virus type 2); test: Plaque reduction assay (PFU), DENV-2 in BHK21; format: cell-based; details: DENV-2, BHK21, PFU/well 150 ± 25
[2] = system: ZIKV strain (COL345Si); test: Post-infection stage evaluation assay (plaque), ZIKV COL345Si
[3] = system: ZIKV/Col; test: Quantification of infectious viral particles by plaque assay, ZIKV/Col post-treatment; format: cell-based, Zika virus; details: for percentage of infection (infectious viral particles, plaque assay): ZIKV/Col, Vero cells, post-treated, vs untreated control 100%
[4] = system: DENV-2; details: postinfection stages; cited from earlier work
[5] = system: endemic chikungunya virus of Colombian origin; test: Post-infection stage evaluation assay (plaque), CHIKV
[6] = system: CHIKV (Chikungunya virus); test: End-point titration technique (EPTT), viral titer reduction factor, CHIKV in Vero E6; format: cell-based; details: Vero E6, 10TCID50, EPTT
[7] = system: ZIKV/Col; test: Intracellular quantification of viral protein by cell-ELISA, ZIKV/Col; format: cell-based, Zika virus; details: all concentrations evaluated (3.1-25.0 μg/mL)
[8] = system: Zika_459148 virus strain; test: Post-infection stage evaluation assay (plaque), Zika_459148
[9] = system: BHK-21 cells; test: Cytotoxicity CC100 in BHK-21 cells (6 days)
[10] = MTT cytotoxicity assay (CC50); details: chlorocebus sabaeus
[11] = system: ZIKV/Col; test: Quantification of intracellular viral genome by qRT-PCR, ZIKV/Col; format: cell-based, Zika virus
[12] = system: Colombian Zika virus strains; test: Anti-Zika EC50 summarised over Colombian strains (abstract); format: cell-based; details: read-out: EC50 against Colombian Zika virus strains
[13] = system: ZIKV (Zika virus); test: Plaque reduction assay (PFU), ZIKV in Vero E6; format: cell-based
[14] = system: herpes virus type 2 (HHV-2); details: cited from earlier work
[15] = system: Vero-E6 cells; test: Cytotoxicity CC100 in Vero-E6 cells (72 h); details: Vero-E6 cells, 72h

With `CC(C)c1cc2c(cc1O)[C@@]1(C)CCC[C@@](C)(CN3C(=O)c4ccccc4C3=O)[C@@H]1CC2` [Compound 6, 18-(phthalimid-2-yl)ferruginol] the “% inhibition (PFU)” value [1] was 91 ± 7%, the “SI (CC50/EC50)” value ([2]; ZIKV COL345Si, 6 days) was 15 and the EC50 ([2]; Zika virus, 144 h, read-out: EC50 ZIKV strain COL345Si) was 5.3 ± 2.9 µM. The “percentage of infection (infectious viral particles, plaque assay)” value (“percentage of infection” for short) ([3]; 3.1 μg/mL) was 62.7%, the “percentage of infection” value ([3]; 6.2 μg/mL) was 31.3% and the “percentage of infection” value ([3]; 12.5 μg/mL) was 20.9%. For the same compound, the “percentage of infection” value ([3]; 25.0 μg/mL) was 7.0%, the EC50 ([3]; Zika virus, read-out: EC50 ZIKV/Col) was 9.9 µM and the EC50 [4] was 1.4 µM. For the same compound, the “SI (CC50/EC50)” value ([5]; CHIKV) was 19.6, the EC50 ([5]; Chikungunya virus, read-out: EC50 chikungunya virus) was 9.8 µM and the “Rf (reduction factor of the viral titer)” value [6] was 10^2. The “viral protein production, percentages of infection” value [7] was “below 50%”, the EC50 ([8]; Zika virus, Vero C1008, 72 h, read-out: EC50 anti-Zika_459148 virus) was 6.3 ± 2.7 µM and the “SI (CC50/EC50)” value ([8]; Zika_459148, 72 h) was 30. The “CC100 (100% cytotoxic concentration)” value [9] was over 50 µg/mL, the CC50 at 72 h [10] was 192 µM and the CC50 at 144 h [10] was 80.8 µM. The “number of genome copies/mL, percentage of untreated control” value ([11]; 3.1 μg/mL) was 125.9%, the “replication of viral genome” value ([11]; cultures treated with 6.2, 12.5, and 25.0 μg/mL) was “significantly inhibited” and the EC50 [12] was 5 to 10 µM. The “Nontoxic concentration that showed a higher viral reduction factor, in μM” value ([13]; ZIKV PFU assay, conversion of 3.1 μg/mL) was “ca. 7.2 μM”, the “% inhibition (PFU)” value ([13]; ZIKV, Vero E6, PFU/well 150 ± 25) was 52 ± 13% and the EC50 [14] was 19.2 µM. The “CC100 (100% cytotoxic concentration)” value [15] was over 50 µg/mL.
